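In this assay, cells in 96-well plates receive the compound at five concentrations for 48 hours. Endpoints are linearly interpolated between the surrounding concentrations. GI50 = concentration required for 50% inhibition of growth. The concentration for full growth arrest is given as TGI.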
Experiments:
Experiment in all cases: DTP human tumour cell line panel, 48 h
[1] = system: A549 NSCLC
[2] = system: ACHN renal
[3] = system: CAKI-1 renal
[4] = system: CCRF-CEM leukemia
[5] = system: DU-145 prostate
[6] = system: HCC-2998 colon
[7] = system: HCT-15 colon
[8] = system: HOP-92 NSCLC
[9] = system: KM12 colon
[10] = system: MDA-MB-435
[11] = system: MOLT-4 leukemia
[12] = system: NCI-H226 lung
[13] = system: NCI-H460 lung
[14] = system: NCI/ADR-RES ovarian
[15] = system: OVCAR-8 ovarian
[16] = system: PC-3 prostate
[17] = system: RXF 393 renal
[18] = system: SK-MEL-2 melanoma
[19] = system: SR leukemia
[20] = system: SW-620 colon
[21] = system: TK-10 renal
[22] = system: U251 CNS
[23] = system: UO-31 renal
[24] = system: 786-0 renal
[25] = system: BT-549 breast
[26] = system: COLO 205 colon
[27] = system: EKVX NSCLC
[28] = system: HCT-116 colon
[29] = system: HL-60(TB) leukemia
[30] = system: HOP-62 NSCLC
[31] = system: HS 578T breast
[32] = system: HT29 colon
[33] = system: IGROV1 ovarian
[34] = system: LOX IMVI melanoma
[35] = system: M14 melanoma
[36] = system: MALME-3M melanoma
[37] = system: MCF7 breast
[38] = system: MDA-MB-231 breast
[39] = system: NCI-H23 lung
[40] = system: NCI-H522 lung
[41] = system: OVCAR-3 ovarian
[42] = system: OVCAR-4 ovarian
[43] = system: OVCAR-5 ovarian
[44] = system: RPMI-8226 leukemia
[45] = system: SF-268 CNS
[46] = system: SF-295 CNS
[47] = system: SF-539 CNS
[48] = system: SK-MEL-28 melanoma
[49] = system: SK-MEL-5 melanoma
[50] = system: SK-OV-3 ovarian
[51] = system: SN12C renal
[52] = system: SNB-19 CNS
[53] = system: SNB-75 CNS
[54] = system: T-47D breast
[55] = system: UACC-257 melanoma
[56] = system: UACC-62 melanoma
[57] = system: A498 renal
[58] = system: K-562 leukemia

C(=C\c1ccc(-c2cn3cc(/C=C/C=N/NC4=NCCN4)ccc3n2)cc1)/C=N/NC1=NCCN1
TGI [1]: 1.98 µM | TGI [2]: 3.01 µM | TGI [3]: 5.61 µM | TGI [4]: 4.18 µM | TGI [5]: 5.44 µM | TGI [6]: 2.6 µM | TGI [7]: > 100 µM | TGI [8]: 2.51 µM | TGI [9]: 4.89 µM | TGI [10]: 3.54 µM | TGI [11]: 5.22 µM | TGI [12]: 3.27 µM | TGI [13]: 1.92 µM | TGI [14]: > 44.9 µM | TGI [15]: 2.67 µM | TGI [16]: 3.97 µM | TGI [17]: 4.79 µM | TGI [18]: 4.51 µM | TGI [19]: 3.54 µM | TGI [20]: 0.77 µM | TGI [21]: 65.4 µM | TGI [22]: 2.26 µM | TGI [23]: 19.8 µM

CN(C)CCC(=O)C(=Cc1ccc(O)cc1)C(=O)CCN(C)C
GI50 [24]: > 100 µM | TGI [24]: > 100 µM | GI50 [1]: > 100 µM | TGI [1]: > 100 µM | GI50 [2]: > 100 µM | TGI [2]: > 100 µM | GI50 [25]: > 100 µM | TGI [25]: > 100 µM | GI50 [3]: 16.4 µM | TGI [3]: 32.5 µM | GI50 [4]: 43.4 µM | TGI [4]: > 100 µM | GI50 [26]: 50.9 µM | TGI [26]: > 100 µM | GI50 [5]: > 100 µM | TGI [5]: > 100 µM | GI50 [27]: > 100 µM | TGI [27]: > 100 µM | GI50 [6]: > 100 µM | TGI [6]: > 100 µM | GI50 [28]: 44.8 µM | TGI [28]: > 100 µM | GI50 [7]: 52.5 µM | TGI [7]: > 100 µM | GI50 [29]: > 100 µM | TGI [29]: > 100 µM | GI50 [30]: > 100 µM | TGI [30]: > 100 µM | GI50 [8]: 95.6 µM | TGI [8]: > 100 µM | GI50 [31]: > 100 µM | TGI [31]: > 100 µM | GI50 [32]: 34.4 µM | TGI [32]: > 100 µM | GI50 [33]: > 100 µM | TGI [33]: > 100 µM | GI50 [9]: 41.9 µM | TGI [9]: > 100 µM | GI50 [34]: 79.6 µM | TGI [34]: > 100 µM | GI50 [35]: > 100 µM | TGI [35]: > 100 µM | GI50 [36]: > 100 µM | TGI [36]: > 100 µM | GI50 [37]: 30.9 µM | TGI [37]: > 100 µM | GI50 [38]: > 100 µM | TGI [38]: > 100 µM | GI50 [10]: > 100 µM | TGI [10]: > 100 µM | GI50 [11]: 80 µM | TGI [11]: > 100 µM | GI50 [12]: > 100 µM | TGI [12]: > 100 µM | GI50 [39]: > 100 µM | TGI [39]: > 100 µM | GI50 [13]: > 100 µM | TGI [13]: > 100 µM | GI50 [40]: 16.4 µM | TGI [40]: 38.9 µM | GI50 [14]: > 100 µM | TGI [14]: > 100 µM | GI50 [41]: > 100 µM | TGI [41]: > 100 µM | GI50 [42]: 26.2 µM | TGI [42]: > 100 µM | GI50 [43]: > 100 µM | TGI [43]: > 100 µM | GI50 [15]: > 100 µM | TGI [15]: > 100 µM | GI50 [44]: 27.8 µM | TGI [44]: > 100 µM | GI50 [17]: > 100 µM | TGI [17]: > 100 µM | GI50 [45]: > 100 µM | TGI [45]: > 100 µM | GI50 [46]: > 100 µM | TGI [46]: > 100 µM | GI50 [47]: > 100 µM | TGI [47]: > 100 µM | GI50 [18]: > 100 µM | TGI [18]: > 100 µM | GI50 [48]: > 100 µM | TGI [48]: > 100 µM | GI50 [49]: > 100 µM | TGI [49]: > 100 µM | GI50 [50]: > 100 µM | TGI [50]: > 100 µM | GI50 [51]: > 100 µM | TGI [51]: > 100 µM | GI50 [52]: > 100 µM | TGI [52]: > 100 µM | GI50 [53]: > 100 µM | TGI [53]: > 100 µM | GI50 [19]: 93.2 µM | TGI [19]: > 100 µM | GI50 [20]: 67.2 µM | TGI [20]: > 100 µM | GI50 [54]: 47.7 µM | TGI [54]: > 100 µM | GI50 [21]: > 100 µM | TGI [21]: > 100 µM | GI50 [22]: 61.5 µM | TGI [22]: > 100 µM | GI50 [55]: > 100 µM | TGI [55]: > 100 µM | GI50 [56]: > 100 µM | TGI [56]: > 100 µM | GI50 [23]: 25.2 µM | TGI [23]: 69.8 µM

CC(=O)c1c(O)ccc2c1c1c(n2C)C(=O)c2ccccc2C1=O
TGI [24]: > 100 µM | TGI [57]: > 100 µM | TGI [1]: > 100 µM | TGI [25]: > 100 µM | TGI [3]: > 100 µM | TGI [4]: > 44.7 µM | TGI [26]: > 100 µM | TGI [5]: > 100 µM | TGI [27]: > 48.5 µM | TGI [6]: 1.36 µM | TGI [28]: > 100 µM | TGI [7]: > 100 µM | TGI [29]: > 100 µM | TGI [30]: > 100 µM | TGI [31]: > 100 µM | TGI [32]: > 100 µM | TGI [58]: > 100 µM | TGI [34]: > 100 µM | TGI [37]: > 21 µM | TGI [38]: > 100 µM | TGI [11]: > 100 µM | TGI [13]: > 100 µM | TGI [41]: 6.47 µM | TGI [43]: > 100 µM | TGI [15]: > 100 µM | TGI [17]: > 100 µM | TGI [45]: 7.97 µM | TGI [46]: > 100 µM | TGI [47]: > 100 µM | TGI [18]: > 100 µM | TGI [49]: > 100 µM | TGI [50]: > 100 µM | TGI [52]: > 100 µM | TGI [53]: 5.97 µM | TGI [54]: 4.46 µM | TGI [21]: > 28.1 µM | TGI [22]: > 100 µM | TGI [55]: > 100 µM

— PubChem BioAssay (NCI)
